The record followed here is patent publication US8999323B2, “Composition that can be cured by polymerisation for the production of biodegradable, biocompatible, cross-linkable polymers on the basis of polyvinyl alcohol” (Technische Universität Wien, priority 2007, dated 2015).

Some results are limits rather than exact numbers.

In the first series the test system is human umbilical vein endothelial cells (HUVEC). Kind of series: Toxicity test of monomers with endothelial cells (EZ4U). The conditions noted are these: HUVEC, 24 hours, concentration of half-maximum proliferation inhibition. In kind it is cell-based. As for the experimental part: For an additional toxicity test of monomers of formula (I), human umbilical vein endothelial cells (HUVEC) were used. After trypsinating the confluent primary cultures, the cells were suspended in commercial Medium 199 with 20% fetal calf serum, put into 96-well cell culture plates in a concentration of 40,000 cells/cm^2, and cultivated until they were confluent again (37° C., 5% CO2). The cell supernatants were then lifted, and the endothelial cells were incubated for 24 hours with increasing monomer concentrations (0.1 nM to 1 mM in Medium 199 with 10% fetal calf serum). The influence on cell proliferation was examined by means of a non-radioactive cell proliferation and cytotoxicity test (EZ4U, Biomedica, Vienna). This test is based on the conversion by living cells of colorless tetrazolium salts into intensively colored formazan derivatives. The photochemically measured staining is proportional to the number of living cells in the sample. Thus, the influence of the test substances on the proliferation of the cells may be photometrically determined. Endothelial cells which had been cultivated without the addition of monomer solutions were used as a growth control.
For the compound `C=COC(=O)CCCCC(=O)OC=C` [AVE, adipic acid divinyl ester], the Cmax1/2 was above 1000 µM. On the same count and under the same terms, the figure for `C=C(C)C(=O)OCCCCOC(=O)C(=C)C` [BDMA, 1,4-butanediol dimethacrylate, reference compound] is 40 µM. On the same count and under the same terms, the figure for `C=COC(=O)CCCCCCCCC(=O)OC=C` [SEVE, sebacic acid divinyl ester] is above 1000 µM; for `C=COC(=O)[C@H](Cc1ccccc1)NC(C)=O` [PAVE, N-acetyl phenylalanine vinyl ester] it is above 1000 µM.

The compound `C=CC(=O)OCCCCCCOC(=O)C=C` [HDDA, 1,6-hexanediol diacrylate, reference compound] showed a Cmax1/2 of 20 µM. Still for that read-out and setting: the result for “diethylene glycol bis[O—(O′- vinylmaleinoy1)-polylactate] [DVMPL]” reads above 1000 µM; that for `C=COC(=O)CCCCCCCCC` [DVE, decanoic acid vinyl ester], above 1000 µM. The same measure, in the same setting: the figure for `C=COC(=O)CCCCCCC(=O)OC=C` [KVE, octanedioic acid divinyl ester] is above 1000 µM; for `C=COC(=O)CCCCC` [HVE, hexanoic acid vinyl ester] it is above 1000 µM.

The series is the same for the next values; noted with them: human.
Regarding “ethoxylated (20) TTA, MG 1200 [ETA, reference compound]”, the Cmax1/2 was 100 µM.

The compound “polyethylene glycol diacrylate, MG 800 [PEG-DA, reference compound]” showed a Cmax1/2 of 500 µM.

The series is the same for the next values; noted with them: human, 24 h.
In the case of `C=CC(=O)OCC(CC)(COC(=O)C=C)COC(=O)C=C` [TTA, trimethylolpropane triacrylate, reference compound], the Cmax1/2 was 10 µM.

Tested on in the next series: not listed separately
Kind of series: in vitro. In kind it is cell-based. The conditions noted are these: mouse. From the text: (§1) In order to assess toxicity, osteoblast-like cells MC3T3-E1 (source: ATCC CRL-2596) were used. At first, the adherent cells were separated from each other and from the bottom of the petri dishes using pronase, and were then mixed with freshly prepared medium consisting of commercially available Minimal Essential Medium Eagle's alpha Modification (αMEM), supplemented with additional glucose from originally 1 g/l to a glucose concentration of 4.5 g/l as well as with 10% FCS (fetal calf serum), 30 μg/ml gentamycin (broad-spectrum antibiotic), L-glutamine (400 mg/l), and ascorbic acid (50 mg/l), so as to obtain a cell concentration of 40,000 cells/ml. 1 ml of this cell suspension was precharged into each well (diameter 1.9 cm) of multi-well plates.
(§2) The multi-well containing the cells was incubated for 5 days at 37° C. under a humid atmosphere with 5% CO2 together with increasing amounts of the monomers used in the examples and comparative examples. Then the cells were washed with phosphate-buffered physiological saline and frozen before the measurements, in order to break up the cells. After thawing of the cells, the amount of deoxyribonucleic acid, which is proportional to the cell count, was determined by staining with a fluorescent dye, measuring the fluorescence at 460 nm (after excitation at 360 nm) and comparing the value to a calibration curve previously prepared.
Consider `C=COC(=O)OCC` [EVC, ethylvinyl carbonate], for which the CC50 at 5 days is above 10 mM. As to `C=COC(=O)CC(C)C(C)C(CC(=O)OC=C)C(C)CC(=O)OC=C` (centres unmarked) [TFVE, trimeric fatty acid trivinyl ester], the CC50 at 5 days was above 10 mM. Same read-out and setting: the figure for `C=COC(=O)CCCCCCCCC(=O)OC=C` [SEVE, sebacic acid divinyl ester] is above 10 mM; for `C=COC(=O)OCCOCCOC(=O)OC=C` [DEGDVC, diethylene glycol bis(vinyl carbonate)] it is above 10 mM. The compound `C=COC(=O)[C@H](Cc1ccccc1)NC(C)=O` [PAVE, N-acetyl phenylalanine vinyl ester] showed a CC50 at 5 days above 10 mM. Regarding `C=COC(=O)OCCOC(=O)OC=C` [EGDVC, ethylene glycol bis(vinyl carbonate)], the CC50 at 5 days was above 10 mM. Same read-out and setting: the result for `C=COC(=O)COCCOCCOCC(=O)OC=C` [TUVE, ω,ω′-3,6,9-trioxaundecanedioic acid divinyl ester] reads above 10 mM; that for `C=COC(=O)OCC(COC(=O)OC=C)OC(=O)OC=C` [GTVC, glycerine tris(vinyl carbonate)], above 10 mM; that for `C=COC(=O)OCCC#N` [CEVC, 2-cyanoethyl vinyl carbonate], above 10 mM. `C=COC(=O)CCCCCCCCC` [DVE, decanoic acid vinyl ester] gave a CC50 at 5 days above 10 mM. Same read-out and setting: the figure for `C=COC(=O)CCCCCCC(=O)OC=C` [KVE, octanedioic acid divinyl ester] is above 10 mM; for `C=COC(=O)OCCCCCCOC(=O)OC=C` [HDDVC, 1,6-hexanediol bis(vinyl carbonate)] it is above 10 mM. `C=COC(=O)CCCCC` [HVE, hexanoic acid vinyl ester]: the CC50 at 5 days is above 10 mM.

Still in this series, the particulars now being: mouse, osteoblast-like MC3T3-E1 cells (ATCC CRL-2596); MC3T3-E1, 5 days incubation, DNA fluorescence; values are LC50 × 10^4; read-out: In vitro LC50 × 10^4.
Regarding `C=COC(=O)OCCCCOC(=O)OC=C` [BDDVC, 1,4-butanediol bis(vinyl carbonate)], the CC50 at 5 days is above 10 mM.

The same series, now with this note: mouse; MC3T3-E1, 5 days incubation, DNA fluorescence; values are LC50 × 10^4.
Turning to `C=COC(=O)N(C)CC(=O)OC` [SMEVCA, sarcosine methyl ester vinyl carbamate], the CC50 is above 10 mM. Still for that read-out and setting: the result for `C=COC(=O)ON(C)C(=O)OC=C` [MHADVC, N,O-Bis(vinyloxycarbonyl)-N-methyl hydroxylamine] reads above 10 mM; that for `C=C(C)C(=O)OCCCCOC(=O)C(=C)C` [BDMA, 1,4-butanediol dimethacrylate, reference compound], below 0.01 mM; that for `C=CC(=O)OCC(CC)(COC(=O)C=C)COC(=O)C=C` [TTA, trimethylolpropane triacrylate, reference compound], below 0.01 mM. Same read-out and setting: the figure for `C=COP(=O)(OC=C)OCC` [DVEP, divinyl ethyl phosphate] is above 10 mM. The compound `C=COC(=O)NCCOP(=O)(OCC)OCCNC(=O)OC=C` [EBVCAEP, ethyl bis[2-(vinyloxycarbonylamino)ethyl]phosphate] displayed a CC50 above 10 mM. Still for that read-out and setting: the result for `C=COP(=O)(OCC)OCC` [DEVP, diethyl vinyl phosphate] reads above 10 mM; that for `C=COC(=O)N(OC)C(=O)C=C` [AMVCA, N-acryloyl N-methoxy vinyl carbamate], below 0.01 mM; that for `C=CC(=O)OCCCCCCOC(=O)C=C` [HDDA, 1,6-hexanediol diacrylate, reference compound], below 0.01 mM.

`C=COC(=O)NCCCOCCOCCCNC(=O)OC=C` [JAVM, 3,3′-ethylenedioxy bis(propylamine)divinyl carbamate] gave a CC50 above 10 mM. `C=COC(=O)NOC` [MVCA, N-methoxy vinyl carbamate] showed a CC50 above 10 mM. The same measure, in the same setting: the result for `C=COC(=O)N(C)CCN(C)C(=O)OC=C` [N,N′-dimethyl ethylenediamine bis(vinyl carbamate)] reads above 10 mM. Still for that read-out and setting: the figure for `C=COP(=O)(OC=C)OC=C` [TVP, trivinyl phosphate] is above 10 mM.

A further series relates to osteoblast-like cells MC3T3-E1. Kind of series: in vitro. The series is classed as cell-based.
Conditions: not given
Description: as §1, §2
Consider “hydrated ricinus oil tris(vinyl carbonate) [HRiTVC]”, for which the CC50 is above 10 mM.

For “ethoxylated (20) TTA, MG 1200 [ETA, reference compound]”, the CC50 came out at 0.07 mM. On the same count and under the same terms, the result for “polyethylene glycol(400) bis(vinyl carbonate) [PEGDVC]” reads above 10 mM; that for “polyethylene glycol diacrylate, MG 800 [PEG-DA, reference compound]”, 0.11 mM.

Still in this series, the particulars now being: statement on Table 2.
In the case of `C=COC(=O)N(OC)C(=O)C=C` [AMVCA, N-acryloyl N-methoxy vinyl carbamate], the “toxicity for osteoblasts compared with the acrylates of the comparative examples” value is on record as “similarly toxic as the majority of the comparative examples”.
